According to ChEMBL document CHEMBL3627608, “Crystal structures of human RIP2 kinase catalytic domain complexed with ATP-competitive inhibitors: Foundations for understanding inhibitor selectivity” (Bioorg Med Chem, 2015):

Key:
[1] = biological target: Cyclin-dependent kinase 14 (Homo sapiens) (UniProt O94921); assay: Inhibition of PFTK1 (unknown origin) at 10 uM after 120 mins P33 radiolabeled kinase activity assay
[2] = biological target: T1, NUAK family SNF1-like kinase 2 (Homo sapiens) (UniProt Q9H093); assay: Inhibition of SNARK (unknown origin) at 10 uM after 120 mins P33 radiolabeled kinase activity assay
T1 sequence (whole entry): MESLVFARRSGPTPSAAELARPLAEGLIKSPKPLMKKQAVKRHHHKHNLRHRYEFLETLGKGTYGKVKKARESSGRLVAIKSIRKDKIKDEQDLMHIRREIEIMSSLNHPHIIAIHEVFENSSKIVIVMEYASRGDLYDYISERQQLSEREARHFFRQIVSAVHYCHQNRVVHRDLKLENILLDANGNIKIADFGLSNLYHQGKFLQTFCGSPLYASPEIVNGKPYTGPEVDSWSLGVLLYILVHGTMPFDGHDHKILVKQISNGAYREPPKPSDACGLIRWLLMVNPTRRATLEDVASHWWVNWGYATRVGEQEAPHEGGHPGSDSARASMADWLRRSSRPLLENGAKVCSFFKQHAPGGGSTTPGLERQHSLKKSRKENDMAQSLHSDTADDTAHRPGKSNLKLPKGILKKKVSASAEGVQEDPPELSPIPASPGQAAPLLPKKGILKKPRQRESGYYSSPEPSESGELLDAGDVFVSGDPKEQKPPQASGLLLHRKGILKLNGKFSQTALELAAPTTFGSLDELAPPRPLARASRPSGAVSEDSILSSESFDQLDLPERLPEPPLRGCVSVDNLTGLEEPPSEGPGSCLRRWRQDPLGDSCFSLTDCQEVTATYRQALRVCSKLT

[3] = biological target: Ribosomal protein S6 kinase alpha-6 (Homo sapiens) (UniProt Q9UK32); assay: Inhibition of RSK4 (unknown origin) at 10 uM after 120 mins P33 radiolabeled kinase activity assay
[4] = biological target: Serine/threonine-protein kinase 10 (Homo sapiens) (UniProt O94804); assay: Inhibition of LOK (unknown origin) at 10 uM after 120 mins P33 radiolabeled kinase activity assay
[5] = biological target: Leucine-rich repeat serine/threonine-protein kinase 2 (Homo sapiens) (UniProt Q5S007); assay: Inhibition of LRRK2 (unknown origin) at 10 uM after 120 mins P33 radiolabeled kinase activity assay
[6] = biological target: T2, Aurora kinase C (Homo sapiens) (UniProt Q9UQB9); assay: Inhibition of Aurora C (unknown origin) at 10 uM after 120 mins P33 radiolabeled kinase activity assay
T2 sequence (whole entry): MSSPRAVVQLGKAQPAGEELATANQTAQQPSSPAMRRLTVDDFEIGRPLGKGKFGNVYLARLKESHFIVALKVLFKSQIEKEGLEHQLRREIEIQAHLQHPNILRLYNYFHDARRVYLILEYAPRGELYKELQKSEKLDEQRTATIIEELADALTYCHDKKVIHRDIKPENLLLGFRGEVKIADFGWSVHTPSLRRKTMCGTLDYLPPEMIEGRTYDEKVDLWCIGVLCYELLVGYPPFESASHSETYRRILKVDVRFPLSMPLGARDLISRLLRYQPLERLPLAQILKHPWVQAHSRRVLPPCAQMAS

[7] = biological target: Myosin light chain kinase, smooth muscle (Homo sapiens) (UniProt Q15746); assay: Inhibition of MLCK (unknown origin) at 10 uM after 120 mins P33 radiolabeled kinase activity assay
[8] = biological target: T3, Serine/threonine-protein kinase TBK1 (Homo sapiens) (UniProt Q9UHD2); assay: Inhibition of TBK1 (unknown origin) at 10 uM after 120 mins P33 radiolabeled kinase activity assay
T3 sequence (whole entry): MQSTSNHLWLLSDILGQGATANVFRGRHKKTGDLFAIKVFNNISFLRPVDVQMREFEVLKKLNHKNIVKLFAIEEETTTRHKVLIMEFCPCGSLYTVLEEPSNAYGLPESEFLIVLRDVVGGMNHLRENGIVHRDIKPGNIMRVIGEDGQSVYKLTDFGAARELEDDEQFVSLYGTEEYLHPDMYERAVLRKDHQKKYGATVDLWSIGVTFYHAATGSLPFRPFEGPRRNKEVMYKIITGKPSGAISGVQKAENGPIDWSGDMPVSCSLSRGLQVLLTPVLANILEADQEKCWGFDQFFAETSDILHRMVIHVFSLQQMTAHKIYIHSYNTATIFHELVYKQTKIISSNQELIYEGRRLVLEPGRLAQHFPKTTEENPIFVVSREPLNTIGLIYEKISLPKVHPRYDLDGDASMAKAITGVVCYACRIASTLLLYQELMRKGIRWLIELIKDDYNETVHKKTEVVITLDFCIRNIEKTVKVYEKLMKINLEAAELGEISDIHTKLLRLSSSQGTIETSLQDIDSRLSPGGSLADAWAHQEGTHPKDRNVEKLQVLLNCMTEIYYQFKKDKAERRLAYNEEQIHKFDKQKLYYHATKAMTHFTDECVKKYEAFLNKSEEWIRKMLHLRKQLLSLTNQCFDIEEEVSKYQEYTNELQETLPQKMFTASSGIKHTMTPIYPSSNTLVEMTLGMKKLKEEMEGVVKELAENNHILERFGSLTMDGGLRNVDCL

[9] = biological target: T4, Tyrosine-protein kinase ZAP-70 (Homo sapiens) (UniProt P43403); assay: Inhibition of ZAP70 (unknown origin) at 10 uM after 120 mins P33 radiolabeled kinase activity assay
T4 sequence (whole entry): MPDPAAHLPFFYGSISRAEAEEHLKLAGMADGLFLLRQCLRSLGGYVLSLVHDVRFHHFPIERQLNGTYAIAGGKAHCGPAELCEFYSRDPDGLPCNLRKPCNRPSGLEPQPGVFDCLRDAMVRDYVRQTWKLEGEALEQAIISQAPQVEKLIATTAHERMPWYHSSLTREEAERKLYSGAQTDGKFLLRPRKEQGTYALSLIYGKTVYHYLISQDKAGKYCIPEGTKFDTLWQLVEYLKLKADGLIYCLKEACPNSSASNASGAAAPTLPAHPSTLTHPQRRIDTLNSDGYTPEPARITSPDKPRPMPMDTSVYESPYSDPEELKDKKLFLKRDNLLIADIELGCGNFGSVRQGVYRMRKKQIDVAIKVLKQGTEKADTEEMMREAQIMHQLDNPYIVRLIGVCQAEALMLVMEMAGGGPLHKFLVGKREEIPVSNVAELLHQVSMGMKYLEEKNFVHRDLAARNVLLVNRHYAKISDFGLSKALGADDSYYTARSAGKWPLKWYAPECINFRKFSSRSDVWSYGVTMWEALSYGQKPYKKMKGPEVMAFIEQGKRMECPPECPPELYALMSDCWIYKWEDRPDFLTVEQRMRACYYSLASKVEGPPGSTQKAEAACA

Cyclin-dependent kinase 14 (Homo sapiens), sequence (O94921 whole entry): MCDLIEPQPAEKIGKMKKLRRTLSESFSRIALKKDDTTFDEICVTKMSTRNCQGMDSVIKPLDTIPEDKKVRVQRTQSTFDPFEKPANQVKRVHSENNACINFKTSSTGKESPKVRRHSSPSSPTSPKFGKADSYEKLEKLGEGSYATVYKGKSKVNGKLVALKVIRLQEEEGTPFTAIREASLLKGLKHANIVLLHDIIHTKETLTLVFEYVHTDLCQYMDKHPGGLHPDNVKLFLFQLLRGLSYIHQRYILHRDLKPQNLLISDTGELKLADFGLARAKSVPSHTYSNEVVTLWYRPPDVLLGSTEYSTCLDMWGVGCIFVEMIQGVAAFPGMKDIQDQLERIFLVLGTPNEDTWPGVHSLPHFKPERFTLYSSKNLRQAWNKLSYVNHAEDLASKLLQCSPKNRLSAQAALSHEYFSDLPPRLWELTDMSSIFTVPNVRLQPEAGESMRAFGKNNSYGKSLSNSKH
Leucine-rich repeat serine/threonine-protein kinase 2 (Homo sapiens), sequence (Q5S007 whole entry): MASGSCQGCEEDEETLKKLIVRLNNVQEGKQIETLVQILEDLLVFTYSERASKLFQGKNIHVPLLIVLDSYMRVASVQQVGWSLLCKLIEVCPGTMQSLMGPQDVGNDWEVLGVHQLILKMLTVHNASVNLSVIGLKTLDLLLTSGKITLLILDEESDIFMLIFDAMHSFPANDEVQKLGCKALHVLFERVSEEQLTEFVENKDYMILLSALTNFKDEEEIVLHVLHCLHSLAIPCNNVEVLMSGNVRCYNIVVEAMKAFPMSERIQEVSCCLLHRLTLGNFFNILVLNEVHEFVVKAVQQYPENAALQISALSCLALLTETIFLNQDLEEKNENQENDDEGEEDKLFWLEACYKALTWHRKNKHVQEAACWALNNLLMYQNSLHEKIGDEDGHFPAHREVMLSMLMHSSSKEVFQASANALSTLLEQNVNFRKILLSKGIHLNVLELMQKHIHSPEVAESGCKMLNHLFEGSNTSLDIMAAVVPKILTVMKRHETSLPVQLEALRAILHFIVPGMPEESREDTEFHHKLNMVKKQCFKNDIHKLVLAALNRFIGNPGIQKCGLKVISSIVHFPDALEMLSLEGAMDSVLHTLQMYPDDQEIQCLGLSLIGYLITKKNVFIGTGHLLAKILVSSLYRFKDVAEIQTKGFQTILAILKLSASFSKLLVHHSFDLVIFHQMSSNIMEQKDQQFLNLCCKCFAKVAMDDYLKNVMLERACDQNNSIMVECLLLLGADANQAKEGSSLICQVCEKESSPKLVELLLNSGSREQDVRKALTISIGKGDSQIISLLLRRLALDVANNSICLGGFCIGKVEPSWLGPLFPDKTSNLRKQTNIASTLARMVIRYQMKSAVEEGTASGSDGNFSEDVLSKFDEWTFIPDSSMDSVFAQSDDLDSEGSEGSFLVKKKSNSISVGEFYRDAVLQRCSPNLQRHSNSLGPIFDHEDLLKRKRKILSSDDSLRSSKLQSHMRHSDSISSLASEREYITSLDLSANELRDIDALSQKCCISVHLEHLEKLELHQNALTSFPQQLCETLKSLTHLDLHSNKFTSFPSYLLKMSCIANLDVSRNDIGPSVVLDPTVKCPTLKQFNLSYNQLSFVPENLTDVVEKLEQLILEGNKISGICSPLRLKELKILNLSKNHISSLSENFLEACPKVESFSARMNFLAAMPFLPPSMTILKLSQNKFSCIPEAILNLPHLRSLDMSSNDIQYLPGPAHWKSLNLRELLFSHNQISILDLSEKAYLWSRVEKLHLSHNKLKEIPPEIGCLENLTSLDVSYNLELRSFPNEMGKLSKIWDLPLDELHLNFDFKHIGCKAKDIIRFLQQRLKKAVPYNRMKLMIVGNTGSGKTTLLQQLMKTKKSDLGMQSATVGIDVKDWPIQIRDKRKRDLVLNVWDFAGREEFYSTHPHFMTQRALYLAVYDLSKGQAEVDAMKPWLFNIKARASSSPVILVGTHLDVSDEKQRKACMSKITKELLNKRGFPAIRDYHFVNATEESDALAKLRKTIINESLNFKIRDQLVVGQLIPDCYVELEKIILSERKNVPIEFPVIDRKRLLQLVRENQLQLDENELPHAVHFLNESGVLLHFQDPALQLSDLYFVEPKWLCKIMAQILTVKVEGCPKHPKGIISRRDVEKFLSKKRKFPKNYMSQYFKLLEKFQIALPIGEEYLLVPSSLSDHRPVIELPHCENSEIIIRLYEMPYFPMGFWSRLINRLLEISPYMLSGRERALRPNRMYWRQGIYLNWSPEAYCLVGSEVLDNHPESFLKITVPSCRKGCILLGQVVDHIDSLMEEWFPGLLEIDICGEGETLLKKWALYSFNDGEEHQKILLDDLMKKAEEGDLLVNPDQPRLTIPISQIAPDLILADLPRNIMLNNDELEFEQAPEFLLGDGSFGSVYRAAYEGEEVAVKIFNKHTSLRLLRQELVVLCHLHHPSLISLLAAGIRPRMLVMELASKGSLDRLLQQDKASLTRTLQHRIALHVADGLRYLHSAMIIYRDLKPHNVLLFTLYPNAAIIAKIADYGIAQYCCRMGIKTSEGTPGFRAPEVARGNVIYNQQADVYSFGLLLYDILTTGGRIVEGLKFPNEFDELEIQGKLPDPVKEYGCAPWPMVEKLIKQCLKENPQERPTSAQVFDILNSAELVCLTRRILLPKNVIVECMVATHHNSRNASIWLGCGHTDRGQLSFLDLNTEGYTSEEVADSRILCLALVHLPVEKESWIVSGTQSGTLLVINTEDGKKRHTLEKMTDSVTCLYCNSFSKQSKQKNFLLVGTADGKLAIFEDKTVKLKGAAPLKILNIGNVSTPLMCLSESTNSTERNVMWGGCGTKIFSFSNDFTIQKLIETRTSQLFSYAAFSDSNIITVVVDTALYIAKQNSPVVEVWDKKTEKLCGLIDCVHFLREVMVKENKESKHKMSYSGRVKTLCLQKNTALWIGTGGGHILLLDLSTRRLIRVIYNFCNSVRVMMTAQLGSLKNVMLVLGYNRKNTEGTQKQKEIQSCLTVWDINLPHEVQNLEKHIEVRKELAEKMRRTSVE
Serine/threonine-protein kinase 10 (Homo sapiens), sequence (O94804 whole entry, looked up): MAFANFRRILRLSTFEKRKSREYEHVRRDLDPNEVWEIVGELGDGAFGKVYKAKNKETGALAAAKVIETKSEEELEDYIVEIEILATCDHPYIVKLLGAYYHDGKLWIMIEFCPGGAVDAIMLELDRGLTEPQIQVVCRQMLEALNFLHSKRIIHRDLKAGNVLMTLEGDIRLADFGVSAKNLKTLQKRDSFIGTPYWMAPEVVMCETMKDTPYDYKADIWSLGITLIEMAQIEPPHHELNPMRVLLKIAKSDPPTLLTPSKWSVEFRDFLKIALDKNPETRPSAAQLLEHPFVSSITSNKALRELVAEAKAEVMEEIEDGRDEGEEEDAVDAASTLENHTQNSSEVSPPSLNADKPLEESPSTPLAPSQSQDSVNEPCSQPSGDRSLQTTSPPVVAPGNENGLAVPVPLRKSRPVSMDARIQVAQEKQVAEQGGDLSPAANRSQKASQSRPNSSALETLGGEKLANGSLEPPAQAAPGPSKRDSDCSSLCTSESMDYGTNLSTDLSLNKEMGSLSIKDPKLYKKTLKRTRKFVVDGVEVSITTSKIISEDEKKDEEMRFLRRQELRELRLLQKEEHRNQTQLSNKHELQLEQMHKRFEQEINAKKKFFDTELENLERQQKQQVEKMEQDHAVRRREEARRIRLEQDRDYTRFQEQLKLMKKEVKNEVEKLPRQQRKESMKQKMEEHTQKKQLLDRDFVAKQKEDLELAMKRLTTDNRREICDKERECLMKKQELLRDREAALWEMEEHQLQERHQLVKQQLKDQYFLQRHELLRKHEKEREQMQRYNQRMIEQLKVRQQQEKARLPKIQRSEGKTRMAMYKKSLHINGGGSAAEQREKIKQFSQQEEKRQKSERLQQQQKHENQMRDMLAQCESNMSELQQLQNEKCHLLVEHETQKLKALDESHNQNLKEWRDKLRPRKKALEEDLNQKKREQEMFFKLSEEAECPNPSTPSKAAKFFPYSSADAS
Ribosomal protein S6 kinase alpha-6 (Homo sapiens), sequence (Q9UK32 whole entry): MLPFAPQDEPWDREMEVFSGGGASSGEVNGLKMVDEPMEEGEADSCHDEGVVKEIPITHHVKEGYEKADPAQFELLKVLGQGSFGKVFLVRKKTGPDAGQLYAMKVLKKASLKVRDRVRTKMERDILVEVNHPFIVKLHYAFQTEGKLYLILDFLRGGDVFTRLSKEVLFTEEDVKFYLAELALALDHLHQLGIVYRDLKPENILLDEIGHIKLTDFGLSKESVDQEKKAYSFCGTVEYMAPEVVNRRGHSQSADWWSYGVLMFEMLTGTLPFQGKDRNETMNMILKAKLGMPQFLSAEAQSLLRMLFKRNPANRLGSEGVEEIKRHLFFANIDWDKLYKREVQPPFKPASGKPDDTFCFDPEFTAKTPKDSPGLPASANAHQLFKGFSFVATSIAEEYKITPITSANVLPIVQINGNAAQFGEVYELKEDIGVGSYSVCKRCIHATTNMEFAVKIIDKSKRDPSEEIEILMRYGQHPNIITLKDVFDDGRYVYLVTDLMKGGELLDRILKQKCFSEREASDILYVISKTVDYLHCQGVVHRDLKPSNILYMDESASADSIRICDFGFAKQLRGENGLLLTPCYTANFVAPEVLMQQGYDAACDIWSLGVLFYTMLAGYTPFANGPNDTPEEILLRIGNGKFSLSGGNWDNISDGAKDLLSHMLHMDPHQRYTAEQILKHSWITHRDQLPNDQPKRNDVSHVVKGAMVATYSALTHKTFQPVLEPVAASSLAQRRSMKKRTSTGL

Row | inhibition [1] [%] | inhibition [2] [%] | inhibition [3] [%] | inhibition [4] [%] | inhibition [5] [%] | inhibition [6] [%] | inhibition [7] [%] | inhibition [8] [%] | inhibition [9] [%] | Structure (SMILES)
1 | -3.92 | 2.98 | 1.08 | 28.4 | 17.1 | 3.77 | 17.6 | 5.84 | 0.28 | COCCNC(=O)c1ccc2c(c1)nc(-c1cnc(-c3ccc(Cl)cc3)[nH]1)n2CCOC
2 | 50.9 | 2.62 | 66.9 | 74.8 | 63.4 | 11 | 15.6 | 55.4 | -0.68 | CS(=O)(=O)c1cccc(Nc2nccc(-c3sc(N4CCOCC4)nc3-c3cccc(NS(=O)(=O)c4c(F)cccc4F)c3)n2)c1
3 | 86.7 | -1.05 | 4.26 | 92.8 | 81.5 | 15.8 | 19.4 | 4.25 | -5.86 | CC(C)(C)c1cc(NC(=O)Nc2ccc(Oc3ccncc3)cc2)no1
